Laboratory results as given in patent US6762164B2, “Use of 3-position cyclosporin derivatives for hair growth” (LG Household & Health Care Ltd., priority 2001, dated 2004).

System: Female C57BL/6 mice
Experiment: Test for hair growth promoting effect: hair regrowth on shaved backs of mice
Format: in vivo
Conditions: shaved back, 100 μl (conc. 0.1% w/v) applied once a day for 30 days, visual approach
Description: Female C57BL/6 mice of ages 6 to 7 weeks were utilized. After removing hairs on the middle of the back with an electric shaver, the mice were weighed and randomly assigned to the test groups with an even distribution of weights. The mice were given one day for adaptation. From the next day, mice were applied once a day on their backs with cyclosporin A and the cyclosporin A derivatives (Compounds 1 to 7) prepared by HPLC in Example 1 in amounts of 100 μl (conc. 0.1% w/v) for 30 days. The results were determined by visual approach, in terms of degrees of hair regrowth. With respect to respective hair-removed areas, rates of new hair growth were examined and compared.

Row | Substance | Area rate of hair regrowth (%)
1 | [D-2-(methylamino)hexa-4-ynoyl^3] cyclosporin A [Compound 3] | 95
2 | [D-2-(methylamino)pent-4-ynoyl^3] cyclosporin A [Compound 4] | 96
3 | [D-2-(methylthio)-Sar^3] cyclosporin A [Compound 5] | 93
4 | [N-methyl-D-Abu3] cyclosporin A [Compound 1] | 95
5 | [N-methyl-D-Nva^3] cyclosporin A [Compound 2] | 91
6 | [N-methyl-D-Ser^3] cyclosporin A [Compound 7] | 90
7 | [N-methyl-O-propenyl-D-Ser^3] cyclosporin A [Compound 6] | 94
8 | cyclosporin A [reference compound] | 91
